Entries after “also recorded” stand apart in the source; their conditions may differ. Read-outs that look alike come from different tables or passages of the source. Peptide text beside a SMILES is read from it. * marks the point of attachment. Cbz = O=C(OCc1ccccc1)*; CH2F = FC*
Tests used:
T24 bladder cancer cells = test: Cell cycle analysis of T24 3DTMs; format: cell-based, human
Method: Following five days of incubation on AM3 Amikagels, 3DTMs of T24 cells with NIH3T3 murine fibroblast cells were harvested for cell cycle analysis. Four or five individual 3DTMs of T24 cells alone or UMUC3 cells alone were harvested on the 7th day after seeding on Amikagels, collected in an eppendorf tube. 50 μl of 5 mg/ml collagenase was added to 3DTMs prepared using fibroblast helper cells for 30 minutes at 37° C. in order to facilitate their disassembly by gentle pipetteing. Single cell 3DTMs were disassembled using manual pipetting. Disassembled 3DTM cells were then centrifuged at 200 r.c.f. in order to collect the cell pellet. The pellet was resuspended in a solution of 1% v/v 1× Triton-X, 5% (v/v) fetal bovine serum (FBS), 50 μg/mL propidium iodide, and 0.006-0.01 units/mL ribonuclease A. After incubation for 30 minutes on ice, cells were analyzed for their cell cycle profiles using flow cytometry; the propidum iodide (PI) signal was detected using an excitation at 535 nm and emission at 617 nm. Voltages of the FL2-A, SSC and FSC channels were adjusted in order to obtain best representative peaks for alignment of 2n (diploidy—G0/G1) peak to 200 intensity units during flow cytometry. FL2A (FL2-Area) provides the information regarding the pulse area of the emitted fluorescence signal (total cell fluorescence) whereas […] light from the sample. FSC is a measure of diffracted light from the sample proportional to cell surface area or size and SSC is proportional to cell granularity or internal complexity.

dormant T24 3DTMs [1] = test: Escape from dormancy after transfer of T24 3DTMs from AM3 to AM1 Amikagel; format: cell-based, human; details: for microcolony formation: 100 μM pre-treatment, 15 days after transfer to AM1
Method: T24 3DTMs were first formed on AM3 Amikagels, and transferred to AM1 Amikagels on the seventh day following initial cell seeding, in order to investigate the role of chemo-mechanical properties of Amikagels on 3DTM fate, dormancy and escape from dormancy. Upon transfer, 3DTMs were monitored for cell spreading and motility on the gel for an additional 7 days. After 7 days, cell cycle analysis was carried out on the all 3DTMs as described in the previous sections.
Long-term experiments were also carried out where 3DTMs were continuously monitored for 15 days after their tranfer from AM3 gel to AM1 gel. In order to study the effect of drug treatment, T24 3DTMs were first treated with 0-100 μM docetaxel for 96 hours after 7 days of initial seeding of cells on AM3 gel. After 96 hours of this drug treatment, the 3DTMs were transferred to AM1 gel to study how different chemo-mechanical properties influenced escape from dormancy. Similar studies were also performed using ROCK inhibitor Y-27632 (20 μM).

NIH3T3-T24 3DTMs = test: Drug efficacy on NIH3T3-T24 3DTM viability; format: cell-based, human, murine
Method: After three important tumor phenotypes were captured on Amikagels, we used Amikagel-3DTM platform for high throughput drug screens against those specific phenotypes. T24 (alone), and NIH3T3-T24 3DTMs were exposed to different doses of the DNA-damaging drug, mitoxantrone (31) or the microtubule-stabilizing drug, docetaxel for 96 hours (32). Co-culture 3DTMs were treated with collagenase to allow their disassembly before cell-viability measurement. It was noticed that collagenase treatment enabled very easy diassembly of the co-culture 3DTMs, supporting our previous finding of ECM production.

CHOP = CHOP expression by western blotting; format: cell-based, human; details: calcimycin 0.5-μM
Method: […] The lysates were then sonicated thrice for 10-15 seconds on ice and collected by centrifugation (16,000 rpm, 20 minutes, 4° C.). Supernatants containing the whole cell protein were stored at −20° C. for subsequent use.
BCA assay was used to quantify the total protein content of the cell lysates. Equivalent quantities of whole cell proteins (4 μg) were combined with 2× Laemmli buffer containing 5% β-mercaptoethanol, and were heat denatured for 5 minutes at 95° C. Equal amounts of protein (4 μg) were then loaded into to the wells of pre-cast gels and run for 35 minutes at 200 V in running buffer (25 mM Tris, […], and 0.1% SDS, pH=8.3). The proteins were transferred to a methanol-activated Hybond PVDF membrane for 30 minutes at 20 V in the transfer buffer (25 mM Tris, 190 mM glycine, and 20% methanol, pH=8.3). The Hybond PVDF membrane was rinsed with 1×PBST and blocked with 3% blocking buffer 3× for 5 minutes each. The membrane was then incubated with the primary antibody for 12 hours at 4° C. (1:1000 CHOP D46F1 Rabbit mAb primary antibody) and (1:5000 f-actin Rabbit Ab primary antibody). […]
Area of the proteins actin and CHOP on the […] membranes were measured using image-J software. The CHOP proteins from treatment samples were then normalized to their actin content and expressed which was further expressed as a percentage of the live control.

dormant 3DTMs = test: Intracellular calcium imaging; format: cell-based, human; details: 3-hour treatment
Method: Dormant 3DTMs grown on AM3 Amikagels were treated with calcimycin (0.5 and 5 μM) with calcium (5 mM) and calcium liposomes (175 μM) for 3 hours (3 dormant 3DTMs each). Following 3 hours, the 3DTMs were disassembled using rapid pipetting and cells were collected by centrifugation. The cells were washed with 1×PBS and resuspended in 50 μL cell culture media+50 μL Fluo-4 dye solution (prepared as per vendor's recommendation). After incubation for 60 minutes, the cells were imaged at excitation: 494 nm, emission: 516 nm. Green color fluorescence was used as an indicator of intracellular calcium concentration. Intracellular calcium fluorescence was quantified using imageJ.

dormant T24 3DTMs [2] = details: for effect of pan-caspase inhibition on thapsigargin-bortezomib induced cell death: dormant T24 spheroids
Method: (§1) Different concentrations (12.5, 25, 50 and 100 μM) of the anticancer drugs docetaxel, (10-40 μM) mitoxantrone, or (250-500 μM) thioTEPA were added to 3DTMs formed after 5-7 days of initial cell seeding on Amikagel. Drugs were added to 3DTMs of T24 cells co-cultured with NIH3T3 murine fibroblasts on day 5, but added to 3DTMs of T24 cells alone on day 7 due to the different times required for their formation After 96 hours of drug exposure, 3DTMs were disassembled using 50 μl of 5 mg/ml collagenase for 20 minutes to allow disassembly for co-culture spheroids, and cell viability was assessed by Live/Dead® staining followed by flow cytometry. 3DTM viability was also measured using MTT/XTT assay as described previously [28]. […] A calcium concentration of 5 mM was used with calcimycin ionophore of different concentrations (0.1, 0.5, 1, 5 and 10 μM) were used to induce cell death. Calcium liposomes were also added at a concentration of 175 μM to the dormant cells.
(§2) Viability of 3DTMs was also determined using the Live-Dead® (Calcein AM-Ethidium homodimer) staining assay. Fresh serum free DMEM media, containing a final concentration of 1 μM of calcein AM and 2 μM of ethidium homodimer-1 (EthD-1), was added to the 3DTMs, and fluorescence imaging was carried out using a Zeiss fluorescence microscope after incubating the reagents for 20 minutes. Green fluorescence emission of calcein-AM inside the live cells was detected using 38 HE filter set (Excitation: 470/40; Emission: 525/50) and red fluorescence of nucleic acid bound-EthD-1 was detected using a 43 HE filter set (Excitation: 550/25; Emission: 605/70). The extent of red and green fluorescence were indicative of the extent of viable and dead cells, respectively, in the 3DTM.
(§3) To quantify the percent dead cells using flow cytometer following drug treatment, 3DTMs were disassembled using collagenase as described previously (whenever necessary). Disassembled cells were suspended in 1×PBS containing a final concentration of 1 μM of Calcein AM and 2 μM of Ethidium Homodimer-1 (EthD-1). After incubating for 20 minutes, fluorescence images were collected as described in previous sections. Cell viability was further quantified using flow cytometry on the same sample using BD FACSAria™ III. Red fluorescence of EthD-1 was detected using a 43 HE filter set (Excitation: 550/25; Emission: 605/70).

dormant T24 3DTMs [3] = test: cells; details: Homo sapiens, 24 h, read-out: LC50
Method: as §1, §2, §3

T24 cells in 2D culture [4] = test: cells; format: cell-based; details: Homo sapiens, T-24, 96 h, read-out: LC50
Method: Cell death (%) after exposure of 5000 T24 cells to docetaxel for 96 hours after 2D cell culture measured by using MTT assay (circles).

T24 cells in 2D culture [5] = details: cited from earlier work

SMILES: C[C@@H](N)[C@H]1CC[C@H](C(=O)Nc2ccncc2)CC1 [Amikagel Y-27632, Y-27632]
- cell cycle profile of dormant cells on AM3 gels (T24 bladder cancer cells; 20-μM, 96 hours): did not observe any changes in the cell cycle profile
- cell escape from mother spheroid (dormant T24 3DTMs [1]; 20-μM for 96 hours on AM3 gel, then transfer to AM1 gel): increase in the number of cells escape

SMILES: S=P(N1CC1)(N1CC1)N1CC1 [ThioTEPA]
- response of NIH3T3-T24 3DTMs (NIH3T3-T24 3DTMs; up to a concentration as high as 500 μM): resistant

SMILES: CNc1ccc2oc(C[C@H]3O[C@@]4(CC[C@H]3C)O[C@H]([C@H](C)C(=O)c3ccc[nH]3)[C@H](C)C[C@H]4C)nc2c1C(=O)O [calcimycin]
- CHOP protein expression (CHOP): No CHOP protein expression
- intracellular calcium fluorescence compared to DMSO control (dormant 3DTMs): significantly higher
- cell death dose response (dormant T24 3DTMs [2]; 24-hour time point): concentration dependent cell death
- CC50 (dormant T24 3DTMs [3]): ~10 µM

SMILES: [Ca+2].[Cl-].[Cl-] [calcium, calcium chloride]
- intracellular calcium fluorescence compared to DMSO control (dormant 3DTMs): significantly higher
- impact on dormant cell viability (dormant T24 3DTMs [2]; free calcium in cell culture media 40 mM, 96 hours): minimal impact on dormant cell viability

SMILES: CC(=O)O[C@@]12CO[C@@H]1C[C@H](O)[C@@]1(C)C(=O)[C@H](O)C3=C(C)[C@@H](OC(=O)[C@H](O)[C@@H](NC(=O)OC(C)(C)C)c4ccccc4)C[C@@](O)([C@@H](OC(=O)c4ccccc4)[C@H]21)C3(C)C [docetaxel]
- cells in G2/M phase of treated dormant T24 3DTMs (T24 bladder cancer cells; drug-treated dormant T24 3DTMs): did not change the number of cells in G2/M phase
- cells in pre G0/G1 phase of treated dormant T24 3DTMs (T24 bladder cancer cells; drug-treated dormant T24 3DTMs): increase in the number of cells in the pre G0/G1 phase
- CC50 (T24 cells in 2D culture [4]): 10 µM
- cell escape from mother 3DTM (dormant T24 3DTMs [1]; 12.5 μM-100 μM for 96 hours on AM3, then transfer to AM1): significantly reduced the number of cells escaping; also recorded: significantly lesser number of cells escaped
- microcolony formation (dormant T24 3DTMs [1]): drastically reduced
- microcolony formation (dormant T24 3DTMs [1]; listed as Docetaxel): inhibited microcolony formation
- cell death (dormant T24 3DTMs [2]; 100 μM, 96 hours, compared to live control): ~10%
- effect on cell viability of T24 3DTMs (dormant T24 3DTMs [2]; different doses, 96 hours of exposure, listed as Docetaxel): did not have any impact on the cell viability

SMILES: O=C1c2c(O)ccc(O)c2C(=O)c2c(NCCNCCO)ccc(NCCNCCO)c21 [mitoxantrone]
- response of NIH3T3-T24 3DTMs (NIH3T3-T24 3DTMs; doses as high as 80 μM, 96 hours): resistant
- CC50 (T24 cells in 2D culture [5]): ~9 µM

SMILES: C/C=C(/C)C(=O)O[C@H]1C(C)=C2[C@H]([C@@H]1OC(=O)CCCCCCC)[C@@](C)(OC(C)=O)C[C@H](OC(=O)CCC)[C@@]1(O)[C@H]2OC(=O)[C@@]1(C)O [thapsigargin]
- cell death (dormant T24 3DTMs [2]; single agent, 15-μM, 96 hour treatment): 50%

SMILES: COC(=O)C[C@H](NC(=O)[C@H](C)NC(=O)[C@@H](NC(=O)OCc1ccccc1)C(C)C)C(=O)CF [zVAD-fmk] (Cbz-Val-Ala-Asp(OMe)-CH2F)
- effect of pan-caspase inhibition on calcimycin-induced death (dormant T24 3DTMs [2]; 24-hour, 10-μM or 5-μM calcimycin, 5 mM calcium, 5-μM zVAD-fmk): did not rescue
- effect of pan-caspase inhibition on thapsigargin-bortezomib induced cell death (dormant T24 3DTMs [2]; 96 hours): reversed
- effect of pan-caspase inhibition on thapsigargin-bortezomib induced cell death (dormant T24 3DTMs [2]; 96 hours, listed as z-VAD-fmk): significantly rescued
